Data as given in patent publication US20210122730A1, “GLUCOCORTICOID RECEPTOR MODULATORS” (ORIC Pharmaceuticals, Inc., priority 2017, published 2021).

target: T1, GR (Homo sapiens, UniProt P04150); assay: In Vitro GR Luciferase Reporter Assay (antagonist mode, CHO-K1-GR-MMTV-Luc reporter cells); assay type: cell-based; conditions: antagonist assay with 10 nM Dexamethasone, 18-24 hours
T1 construct: expressed in transfected cells; host or cells: CHO-K1
T1 sequence (P04150 1-777): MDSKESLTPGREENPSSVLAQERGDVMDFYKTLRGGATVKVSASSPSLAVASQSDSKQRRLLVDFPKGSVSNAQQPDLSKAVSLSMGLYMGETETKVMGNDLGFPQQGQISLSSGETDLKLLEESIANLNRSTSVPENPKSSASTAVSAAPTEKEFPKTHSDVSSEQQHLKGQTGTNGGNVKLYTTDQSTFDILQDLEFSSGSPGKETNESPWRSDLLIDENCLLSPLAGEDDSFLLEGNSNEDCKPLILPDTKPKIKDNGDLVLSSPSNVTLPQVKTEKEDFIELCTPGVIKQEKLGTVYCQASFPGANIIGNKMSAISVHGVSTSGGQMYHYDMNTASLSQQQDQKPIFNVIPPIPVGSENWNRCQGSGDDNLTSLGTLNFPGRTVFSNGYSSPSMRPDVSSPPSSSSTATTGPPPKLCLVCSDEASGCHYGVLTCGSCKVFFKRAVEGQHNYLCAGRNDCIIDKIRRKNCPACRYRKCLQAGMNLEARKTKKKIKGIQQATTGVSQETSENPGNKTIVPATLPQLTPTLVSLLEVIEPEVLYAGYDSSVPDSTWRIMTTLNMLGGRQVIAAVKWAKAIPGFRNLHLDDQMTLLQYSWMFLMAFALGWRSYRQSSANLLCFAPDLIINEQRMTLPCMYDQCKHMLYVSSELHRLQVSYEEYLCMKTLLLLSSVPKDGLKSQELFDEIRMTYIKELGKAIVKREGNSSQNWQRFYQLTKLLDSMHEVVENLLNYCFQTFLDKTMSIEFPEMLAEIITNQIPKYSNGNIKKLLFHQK
Description: Example A: In Vitro GR Luciferase Reporter Assay
Cell Line: CHO-K1-GR-MMTV-Luc reporter cells
Culture Media: DMEM (with phenol red)+10% FBS
Assay Media: DMEM (without phenol red)+10% CSS
Culture CHO-K1I-GR-MMTV-Luc reporter cells in 15 cm plates in Culture Media at conditions less than 90% confluence.
Prepare 200×DMSO 1:5 serial dilutions of control and test compounds in 96-well non-sterile V bottom plate in DMSO, 8serial dilutions for each compound.
Prepare 5× Assay Media diluted compound serial dilutions in 96-well non-sterile V bottom plate: Add 97.5 uL/well of Assay Media into 96-well then add 2.5 ul of 200× concentration of compounds and mix well.
Seed cells for Antagonist Assay: […] CHO-K1-GR-MMTV-Luc reporter cells were seeded in a Corning 3707 flat clear bottom 384-well white TC plate in 20 ul of Assay Media containing 12.5 nM Dexamethasone (final concentration=10 nM).
Add compounds: 5 ul of assay media diluted compounds were added to appropriate wells and followed a quick spin (1000 rpm, 10 sec) to bring media and cells to the bottom of plate. The plates were covered with SealMate film to avoid evaporation and placed in 37° C. incubator for approximately 18-24 hours.
Read plates: Equilibrate appropriate amount of Promega OneGlo luciferase reagent to room temperature. Remove the plates from incubator and add 25 uL of OneGlo reagent/well by multiple channel pipette and read the plates with Tecan F500 luminometer within 3 minutes.
The ability of the compounds disclosed herein to inhibit GR activity was quantified and the respective IC50 value was determined. Table 1and Table 2provide the cellular IC50 values of compounds disclosed herein.

| IC50 [µM] | Compound |
| --- | --- |
| ≤ 0.1 | Cc1ccc(S(=O)(=O)[C@@H]2CCC3=Cc4c(cnn4-c4ccc(F)cc4)C[C@]3(C(=O)c3ccccn3)C2)cc1 [Example 2, ((4aS,6R)-1-(4-Fluorophenyl)-6-tosyl-1,4,5,6,7,8-hexahydro-4aH-benzo[f]indazol-4a-yl)(pyridin-2-yl)methanone] |
| ≤ 0.1 | Cc1ccc(C(=O)[C@]23Cc4cnn(-c5ccc(F)cc5)c4C=C2CC[C@H](S(=O)(=O)c2ccccn2)C3)nc1 [Example 42, ((4aS,6S)-1-(4-fluorophenyl)-6-(pyridin-2-ylsulfonyl)-1,4,5,6,7,8-hexahydro-4aH-benzo[f]indazol-4a-yl)(5-methylpyridin-2-yl)methanone] |
| ≤ 0.1 | CN([C@H]1CCC2=Cc3c(cnn3-c3ccc(F)cc3)C[C@]2(C(=O)c2ccc(C(F)(F)F)cn2)C1)S(=O)(=O)c1ccc(Cl)cc1 [Example 105, 4-chloro-N-((4aS,6S)-1-(4-fluorophenyl)-4a-(5-(trifluoromethyl)picolinoyl)-4,4a,5,6,7,8-hexahydro-1H-benzo[f]indazol-6-yl)-N-methylbenzenesulfonamide] |
| ≤ 0.1 | COc1ccc(S(=O)(=O)[C@H]2CCC3=Cc4c(cnn4-c4ccc(F)cc4)C[C@]3(C(=O)c3ccccn3)C2)cc1 [Example 19, ((4aS,6S)-1-(4-fluorophenyl)-6-((4-methoxyphenyl)sulfonyl)-1,4,5,6,7,8-hexahydro-4aH-benzo[f]indazol-4a-yl)(pyridin-2-yl)methanone] |
| ≤ 0.1 | CN(C(=O)c1cnn(C)c1)[C@H]1CCC2=Cc3c(cnn3-c3ccc(F)cc3)C[C@]2(C(=O)c2cc(C(F)(F)F)ccn2)C1 [Example 96, N-((4aS,6S)-1-(4-fluorophenyl)-4a-(4-(trifluoromethyl)picolinoyl)-4,4a,5,6,7,8-hexahydro-1H-benzo[f]indazol-6-yl)-N,1-dimethyl-1H-pyrazole-4-carboxamide] |
| ≤ 0.1 | O=C(c1ccccn1)[C@]12Cc3cnn(-c4ccc(F)cc4)c3C=C1CC[C@H](S(=O)(=O)c1ccc(C(F)(F)F)cc1)C2 [Example 10, ((4aS,6S)-1-(4-fluorophenyl)-6-((4-(trifluoromethyl)phenyl)sulfonyl)-1,4,5,6,7,8-hexahydro-4aH-benzo[f]indazol-4a-yl)(pyridin-2-yl)methanone] |
| ≤ 0.1 | Cc1ccnc(C(=O)[C@]23Cc4cnn(-c5ccc(F)cc5)c4C=C2CC[C@H](S(=O)(=O)c2cnn(C)c2)C3)c1 [Example 23, ((4aS,6S)-1-(4-fluorophenyl)-6-((1-methyl-1H-pyrazol-4-yl)sulfonyl)-1,4,5,6,7,8-hexahydro-4aH-benzo[f]indazol-4a-yl)(4-methylpyridin-2-yl)methanone] |

same assay, conditions: antagonist mode, 10 nM Dexamethasone

| Compound | IC50 [µM] |
| --- | --- |
| C[C@@]1(S(=O)(=O)c2ccccc2)CCC2=Cc3c(cnn3-c3ccc(F)cc3)C[C@]2(C(=O)c2ccccn2)C1 (single isomer, unassigned) [Example 117, ((4aS,6R)-1-(4-Fluorophenyl)-6-methyl-6-(phenylsulfonyl)-1,4,5,6,7,8-hexahydro-4aH-benzo[f]indazol-4a-yl)(pyridin-2-yl)methanone or ((4aS,6S)-1-(4-fluorophenyl)-6-methyl-6-(phenylsulfonyl)-1,4,5,6,7,8-hexahydro-4aH-benzo[f]indazol-4a-yl)(pyridin-2-yl)methanone] | 0.1 to 1 |
| CCN([C@H]1CCC2=Cc3c(cnn3-c3ccc(F)cc3)C[C@]2(C(=O)c2nccs2)C1)S(=O)(=O)c1ccc(F)cc1 [Example 128, N-ethyl-4-fluoro-N-((4aS,6S)-1-(4-fluorophenyl)-4a-(thiazole-2-carbonyl)-4,4a,5,6,7,8-hexahydro-1H-benzo[f]indazol-6-yl)benzenesulfonamide] | ≤ 0.1 |

The next lines start with the values.

| IC50 [µM] | Compound |
| --- | --- |
| ≤ 0.1 | CCN([C@H]1CCC2=Cc3c(cnn3-c3ccc(F)cc3)C[C@]2(C(=O)c2cc(C(F)(F)F)ccn2)C1)S(=O)(=O)c1cnn(C)n1 [Example 145, N-ethyl-N-((4aS,6S)-1-(4-fluorophenyl)-4a-(4-(trifluoromethyl)picolinoyl)-4,4a,5,6,7,8-hexahydro-1H-benzo[f]indazol-6-yl)-2-methyl-2H-1,2,3-triazole-4-sulfonamide] |
| ≤ 0.1 | CCn1ncc(S(=O)(=O)N(C)[C@H]2CCC3=Cc4c(cnn4-c4ccc(F)cc4)C[C@]3(C(=O)c3ccc(C(F)(F)F)cn3)C2)n1 [Example 129, 2-ethyl-N-((4aS,6S)-1-(4-fluorophenyl)-4a-(5-(trifluoromethyl)picolinoyl)-4,4a,5,6,7,8-hexahydro-1H-benzo[f]indazol-6-yl)-N-methyl-2H-1,2,3-triazole-4-sulfonamide] |
| ≤ 0.1 | CC(C)(O)CN([C@H]1CCC2=Cc3c(cnn3-c3ccc(F)cc3)C[C@]2(C(=O)c2ncc(C(F)(F)F)s2)C1)S(=O)(=O)c1ccc(Cl)nc1 [Example 303, 6-chloro-N-((4aS,6S)-1-(4-fluorophenyl)-4a-(5-(trifluoromethyl)thiazole-2-carbonyl)-4,4a,5,6,7,8-hexahydro-1H-benzo[f]indazol-6-yl)-N-(2-hydroxy-2-methylpropyl)pyridine-3-sulfonamide] |
| ≤ 0.1 | O=C(c1cc(F)ccn1)[C@]12Cc3cnn(-c4ccc(F)cc4)c3C=C1CC[C@H](N(CC1CC1)S(=O)(=O)c1ccc(F)cc1)C2 [Example 274, N-(cyclopropylmethyl)-4-fluoro-N-((4aS,6S)-1-(4-fluorophenyl)-4a-(4-fluoropicolinoyl)-4,4a,5,6,7,8-hexahydro-1H-benzo[f]indazol-6-yl)benzenesulfonamide] |
| ≤ 0.1 | Cn1ncc(S(=O)(=O)N(C2CCC2)[C@H]2CCC3=Cc4c(cnn4-c4ccc(F)cc4)C[C@]3(C(=O)c3cc(C(F)(F)F)ccn3)C2)n1 [Example 256, N-cyclobutyl-N-((4aS,6S)-1-(4-fluorophenyl)-4a-(4-(trifluoromethyl)picolinoyl)-4,4a,5,6,7,8-hexahydro-1H-benzo[f]indazol-6-yl)-2-methyl-2H-1,2,3-triazole-4-sulfonamide] |
| ≤ 0.1 | Cn1cnc(S(=O)(=O)N(CC(F)F)[C@H]2CCC3=Cc4c(cnn4-c4ccc(F)cc4)C[C@]3(C(=O)c3ncc(C(F)(F)F)s3)C2)c1 [Example 383, N-(2,2-difluoroethyl)-N-((4aS,6S)-1-(4-fluorophenyl)-4a-(5-(trifluoromethyl)thiazole-2-carbonyl)-4,4a,5,6,7,8-hexahydro-1H-benzo[f]indazol-6-yl)-1-methyl-1H-imidazole-4-sulfonamide] |
| ≤ 0.1 | O=C(c1cc(Cl)ccn1)[C@]12Cc3cnn(-c4ccc(F)cc4)c3C=C1CC[C@H](N(CC1CC1)S(=O)(=O)c1ccc(F)cc1)C2 [Example 275, N-((4aS,6S)-4a-(4-chloropicolinoyl)-1-(4-fluorophenyl)-4,4a,5,6,7,8-hexahydro-1H-benzo[f]indazol-6-yl)-N-(cyclopropylmethyl)-4-fluorobenzenesulfonamide] |
| ≤ 0.1 | Cn1ncc(S(=O)(=O)N(CC2CC2)[C@H]2CCC3=Cc4c(cnn4-c4ccc(F)cc4)C[C@]3(C(=O)c3cc(C(F)(F)F)ccn3)C2)n1 [Example 200, N-(cyclopropylmethyl)-N-((4aS,6S)-1-(4-fluorophenyl)-4a-(4-(trifluoromethyl)picolinoyl)-4,4a,5,6,7,8-hexahydro-1H-benzo[f]indazol-6-yl)-2-methyl-2H-1,2,3-triazole-4-sulfonamide] |
| ≤ 0.1 | COCCOCCN([C@H]1CCC2=Cc3c(cnn3-c3ccc(F)cc3)C[C@]2(C(=O)c2ncc(C(F)(F)F)s2)C1)S(=O)(=O)c1ccc(F)cc1 [Example 391, 4-fluoro-N-((4aS,6S)-1-(4-fluorophenyl)-4a-(5-(trifluoromethyl)thiazole-2-carbonyl)-4,4a,5,6,7,8-hexahydro-1H-benzo[f]indazol-6-yl)-N-(2-(2-methoxyethoxy)ethyl)benzene-sulfonamide] |
